Data published in ChEMBL document CHEMBL2417365, “Design, synthesis, and in vitro hMAO-B inhibitory evaluation of some 1-methyl-3,5-diphenyl-4,5-dihydro-1H-pyrazoles” (Bioorg Med Chem Lett, 2013).

What was measured:
Homo sapiens = species: Homo sapiens; assay: Selectivity index, ratio of IC50 for human MAO-A to IC50 for human MAO-B
[1] = biological target: T1, Amine oxidase [flavin-containing] B (Homo sapiens, UniProt P27338); assay: biochemical; assay type: cell-based, BTI-TN-5B1-4
T1 sequence (P27338 whole entry): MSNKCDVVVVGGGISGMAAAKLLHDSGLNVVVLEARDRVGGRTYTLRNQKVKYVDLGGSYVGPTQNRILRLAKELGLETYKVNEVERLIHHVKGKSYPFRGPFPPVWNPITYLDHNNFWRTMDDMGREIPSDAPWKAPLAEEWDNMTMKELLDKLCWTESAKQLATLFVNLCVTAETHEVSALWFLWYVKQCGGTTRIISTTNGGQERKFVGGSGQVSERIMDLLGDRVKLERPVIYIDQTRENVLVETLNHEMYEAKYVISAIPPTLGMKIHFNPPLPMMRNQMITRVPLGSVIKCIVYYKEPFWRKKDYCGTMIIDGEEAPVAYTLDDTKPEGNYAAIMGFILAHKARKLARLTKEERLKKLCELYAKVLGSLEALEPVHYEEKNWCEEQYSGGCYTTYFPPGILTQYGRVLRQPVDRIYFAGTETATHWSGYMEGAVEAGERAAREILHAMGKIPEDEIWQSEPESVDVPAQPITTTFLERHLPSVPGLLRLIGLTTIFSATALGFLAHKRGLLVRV
Description: Inhibition of human recombinant microsomal MAO-B expressed in baculovirus-infected insect BTI-TN-5B1-4 cells assessed as p-tyramine conversion to H2O2 by fluorescence assay

[2] = biological target: T2, Amine oxidase [flavin-containing] A (Homo sapiens, UniProt P21397); assay: Inhibition of human recombinant microsomal MAO-A expressed in baculovirus-infected insect BTI-TN-5B1-4 cells assessed as p-tyramine conversion to H2O2 by fluorescence assay
T2 sequence (P21397 whole entry): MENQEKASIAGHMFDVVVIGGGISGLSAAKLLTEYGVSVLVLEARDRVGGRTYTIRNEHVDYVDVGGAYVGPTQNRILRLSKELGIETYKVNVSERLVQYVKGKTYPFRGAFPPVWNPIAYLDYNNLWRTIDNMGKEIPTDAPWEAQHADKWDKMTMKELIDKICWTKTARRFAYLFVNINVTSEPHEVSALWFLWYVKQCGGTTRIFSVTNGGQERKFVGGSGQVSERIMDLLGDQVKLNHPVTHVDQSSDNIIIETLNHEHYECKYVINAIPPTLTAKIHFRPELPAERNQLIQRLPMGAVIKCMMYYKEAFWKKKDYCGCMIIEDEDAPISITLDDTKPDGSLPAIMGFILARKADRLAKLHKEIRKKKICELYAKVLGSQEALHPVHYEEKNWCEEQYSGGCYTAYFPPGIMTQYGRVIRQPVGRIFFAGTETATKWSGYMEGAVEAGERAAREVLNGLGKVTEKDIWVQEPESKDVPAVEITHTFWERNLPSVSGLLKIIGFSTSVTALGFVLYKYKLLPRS

[3] = biological target: T2, Amine oxidase [flavin-containing] A; assay: Inhibition of human recombinant microsomal MAO-A expressed in baculovirus-infected insect BTI-TN-5B1-4 cells at 100 uM assessed as p-tyramine conversion to H2O2 by fluorescence assay; details: for inhibition at 100 µM: BTI-TN-5B1-4, human; for inhibition (INH): human, bti-tn-5b1-4, 100 µM
[4] = biological target: T1, Amine oxidase [flavin-containing] B; assay: Inhibition of human recombinant microsomal MAO-B expressed in baculovirus-infected insect BTI-TN-5B1-4 cells at 100 uM assessed as p-tyramine conversion to H2O2 by fluorescence assay; details: for inhibition (INH): human, bti-tn-5b1-4, 100 µM; for inhibition at 100 µM: BTI-TN-5B1-4, human
[5] = biological target: T1, Amine oxidase [flavin-containing] B; assay: Ratio of selegiline IC50 to compound IC50 for human MAO-B
[6] = biological target: T1, Amine oxidase [flavin-containing] B; assay: Ratio of clorgyline IC50 to compound IC50 for human MAO-B
[7] = biological target: T2, Amine oxidase [flavin-containing] A; assay: Ratio of clorgyline IC50 to compound IC50 for human MAO-A
[8] = biological target: Amine oxidase [flavin-containing] B (Homo sapiens) (UniProt P27338); assay: Ratio of selegiline IC50 to compound IC50 for human MAO-B
[9] = biological target: Amine oxidase [flavin-containing] B (Homo sapiens) (UniProt P27338); assay: Ratio of iproniazid IC50 to compound IC50 for human MAO-B
[10] = biological target: Amine oxidase [flavin-containing] B (Homo sapiens) (UniProt P27338); assay: Ratio of moclobemide IC50 to compound IC50 for human MAO-B

Structure (SMILES) | Ratio IC50 (Homo sapiens) | IC50 [1] [nM] | IC50 [2] [µM] | further results
CN1N=C(c2ccc(O)cc2)CC1c1ccc(Cl)cc1 (stereo unspecified) | 4.8 | 2640 | 12.7 | –
CN1N=C(c2ccc(O)cc2)CC1c1cccc(F)c1 (stereo unspecified) | > 31 | 3170 | – | inhibition at 100 µM [3]: 40%
CN1N=C(c2ccc(O)cc2O)CC1c1cccc(F)c1 (stereo unspecified) | – | – | – | inhibition (INH) [4]: Not Active; inhibition (INH) [3]: Not Active
CN1N=C(c2ccccc2)CC1c1ccc(Cl)cc1 (stereo unspecified) | > 25 | 3950 | – | inhibition (INH) [3]: Not Active
Cc1cccc(C2CC(c3ccccc3)=NN2C)c1 (stereo unspecified) | > 909 | 110 | – | inhibition at 100 µM [3]: 40%
CN1N=C(c2ccc(O)cc2)CC1c1ccccc1F (stereo unspecified) | > 33 | 3040 | – | inhibition at 100 µM [3]: 40%
Cc1cccc(C2CC(c3ccc(O)cc3O)=NN2C)c1 (stereo unspecified) | – | – | – | inhibition at 100 µM [4]: 40%; inhibition at 100 µM [3]: 40%
CN1N=C(c2ccc(O)cc2O)CC1c1ccc(F)cc1 (stereo unspecified) | – | – | 0.81 | –
Cc1cccc(C2CC(c3ccc(O)cc3)=NN2C)c1 (stereo unspecified) | 2.8 | 5780 | 16.3 | –
CN1N=C(c2ccc(O)cc2O)CC1c1ccccc1Cl (stereo unspecified) | 3.7 | 300 | 1.1 | –
CN1N=C(c2ccc(O)cc2O)CC1c1ccccc1F (stereo unspecified) | > 26 | 3870 | – | inhibition at 100 µM [3]: 40%
CN1N=C(c2ccc(O)cc2O)CC1c1cccc(Cl)c1 (stereo unspecified) | 2.3 | 180 | 0.42 | –
CN1N=C(c2ccc(O)cc2O)CC1c1ccccc1 (stereo unspecified) | – | – | – | inhibition at 100 µM [4]: 40%; inhibition at 100 µM [3]: 40%
CN1N=C(c2ccccc2)CC1c1ccccc1 (stereo unspecified) | 14 | 120 | 1.68 | –
CN1N=C(c2ccc(O)cc2)CC1c1cccc(Cl)c1 (stereo unspecified) | 9 | 2070 | 18.7 | –
Cc1ccc(C2CC(c3ccc(O)cc3)=NN2C)cc1 (stereo unspecified) | 4.8 | 1910 | 9.13 | –

Structure (SMILES) | Ratio IC50 (Homo sapiens) | IC50 [1] [nM] | IC50 [2] [µM] | further results
Cc1ccccc1C1CC(c2ccccc2)=NN1C (stereo unspecified) | 30 | 110 | 3.26 | –
O=C(NCCN1CCOCC1)c1ccc(Cl)cc1 [MOCLOBEMIDE] | – | – | – | inhibition (INH) [4]: Not Active
CN1N=C(c2ccc(O)cc2O)CC1c1ccc(Cl)cc1 (stereo unspecified) | 4.1 | 340 | 1.39 | –
CN1N=C(c2ccccc2)CC1c1cccc(F)c1 (stereo unspecified) | 30 | 60 | 1.82 | –
Cc1ccccc1C1CC(c2ccc(O)cc2)=NN1C (stereo unspecified) | 1.1 | 20100 | 21.9 | –
CN1N=C(c2ccccc2)CC1c1cccc(Cl)c1 (stereo unspecified) | 61 | 840 | 51 | –
Cc1ccc(C2CC(c3ccc(O)cc3O)=NN2C)cc1 (stereo unspecified) | – | – | – | inhibition at 100 µM [4]: 40%; inhibition at 100 µM [3]: 40%
CN1N=C(c2ccc(O)cc2)CC1c1ccc(F)cc1 (stereo unspecified) | > 27 | 3650 | – | inhibition at 100 µM [3]: 40%
CN1N=C(c2ccc(O)cc2)CC1c1ccccc1Cl (stereo unspecified) | 1.1 | 10400 | 11.8 | –
Cc1ccccc1C1CC(c2ccc(O)cc2O)=NN1C (stereo unspecified) | 1.9 | 2040 | 3.98 | –
Cc1ccc(C2CC(c3ccccc3)=NN2C)cc1 (stereo unspecified) | 145 | 9.6 | 1.39 | Ratio IC50 [5]: ≥ 2; Ratio IC50 [6]: ≥ 2; Ratio IC50 [7]: <= 2; Ratio IC50 [8]: <= 2; Ratio IC50 [9]: <= 2; Ratio IC50 [10]: <= 2
CN1N=C(c2ccccc2)CC1c1ccccc1Cl (stereo unspecified) | > 27 | 3650 | – | inhibition (INH) [3]: Not Active
CN1N=C(c2ccccc2)CC1c1ccccc1F (stereo unspecified) | 10 | 280 | 2.84 | –
CN1N=C(c2ccccc2)CC1c1ccc(F)cc1 (stereo unspecified) | 21 | 140 | 3 | –
CN1N=C(c2ccc(O)cc2)CC1c1ccccc1 (stereo unspecified) | > 3.7 | 26800 | – | inhibition at 100 µM [3]: 40%
